Measurements: US20240417410A1, “TRICYCLIC COMPOUNDS FOR THE TREATMENT OF CANCER” (Hoffmann-La Roche Inc., priority 2023, published 2024)

Legend:
[1] = system: AGS cells (KRAS G12D); test: Cell viability assay (Cell Counting Kit-8, 3-day); assay type: cell-based, human; conditions: Homo sapiens, 72 h, 72 hrs incubation
Description: (§1) The purpose of this cellular assay was to determine the effects of test compounds on the proliferation of human cancer cell lines NCI-H358 (ATCC-CRL5807) cells, AGS (ATCC-CRL-1739) cells, SW620 (ATCC-CCL-227) over a 3-day treatment period by quantifying the amount of NADPH present at endpoint using Cell Counting Kit-8.
(§2) Cells were seeded at 5,000 cells/well (NCI-H358), 2,000 cells/well (AGS) 2,000 cells/well (SW620) in 96-well assay plates (Corning-3699) and incubated overnight. On the day of the assay, diluted compounds were then added in a final concentration of 0.5% DMSO. After 72 hrs incubation, a tenth of the volume of cell counting kit 8 (Dnjindo-CK04) was added into each well. Read the signal (OD450 minus OD650) using EnVision after 2 hrs incubation. IC50 was determined by fitting a 4-parameter sigmoidal concentration response model.

[2] = system: NCI-H358 cells (KRAS G12C); test: Cell viability assay (Cell Counting Kit-8, 3-day); assay type: cell-based, human; conditions: Homo sapiens, NCI-H358, 72 h, NCI-H358, 72 hrs incubation
Description: as §1, §2

[3] = system: SW620 cells (KRAS G12V); test: Cell viability assay (Cell Counting Kit-8, 3-day); assay type: cell-based, human; conditions: Homo sapiens, SW-620; SW620, 72 hrs incubation
Description: as §1, §2

[4] = system: phosphorylation of ERK, KRAS G12V in SW620; test: pERK inhibition assay; assay type: cell-based; conditions: Homo sapiens, SW-620, 4 h, SW620 cells
Description: (§3) This assay is to measure the ability of test compounds in inhibiting the phosphorylation of ERK, the downstream signaling of KRAS G12C in NCI-H358 cells, KRAS G12D in AGS cells, and KRAS G12V in SW620. NCI-H358 (ATCC-CRL5807) cells, AGS (ATCC-CRL-1739) cells, SW620 (ATCC-CCL-227) cells were all grown and maintained using RPMI-1640 medium (Thermo Fisher Scientific) with 10% fetal bovine serum and 1% penicillin/streptomycin. On the day prior to compound addition, cells were plated in tissue culture-treated 96 well plates (Corning-3699) at a density of 30,000 cell/well, 20,000 cell/well, 30,000 cell/well for NCI-H358, AGS and SW620 respectively, and allowed for attachment overnight. Diluted compounds were then added in a final concentration of 0.5% DMSO. After 4 hours of incubation, the medium was removed, 100 μL of 4% formaldehyde was added, and the assay plates were incubated at room temperature for 20 minutes. The plates were then washed once with phosphate buffered saline (PBS), and permeabilized with 100 μL of chilled methanol for 10 minutes. Non-specific antibody binding to the plates was blocked using 50 μL 1X BSA blocking buffer (Thermo-37520, 10-fold dilution by Phosphate-Buffered Saline Tween (PBST) for at least 1 hour at room temperature.
(§4) The amount of phosphor-ERK was determined using an antibody specific for phosphorylated form of ERK. Primary antibody (PERK, CST-4370, Cell Signaling Technology) was diluted 1:300 in blocking buffer, with 50 μL aliquoted to each well, and incubated overnight at 4° C. Cells was washed five times for 5 minutes with PBST. Secondary antibody (HRP-linked anti-rabbit IgG, CST-7074, Cell Signaling Technology) was diluted 1:1000 in blocking buffer, and 50 μL was added to each well and incubated 1-2 hrs at room temperature. Cells was washed […] for 5 minutes with PBST, 100 μL TMB ELISA substrate (abcam-ab171523) were added and gently shake for 20 minutes. 50 μL stop solution (abcam-ab 171529) were added, and then read the signal (OD450) by EnVision.
(§5) IC50 was determined by fitting a 4-parameter sigmoidal concentration response model.

[5] = system: phosphorylation of ERK, KRAS G12C in NCI-H358 cells; test: pERK inhibition assay; assay type: cell-based; conditions: Homo sapiens, NCI-H358, 4 h
Description: as §3, §4, §5

[6] = system: phosphorylation of ERK, KRAS G12D in AGS cells; test: pERK inhibition assay; assay type: cell-based; conditions: Homo sapiens, AGS, 4 h
Description: as §3, §4, §5

| Structure (SMILES) | IC50 [1] [nM] | IC50 [2] [nM] | IC50 [3] [nM] | IC50 [4] [nM] | IC50 [5] [nM] | IC50 [6] [nM] |
| --- | --- | --- | --- | --- | --- | --- |
| CO[C@@H](C)c1ncc(N2CCOCC2)cc1-c1c2c3cc(cc4c3n1CC(F)(F)C4)-c1csc(n1)C[C@H](NC(=O)[C@H]1C[C@@H]1c1ccccc1)C(=O)N1CCC[C@H](N1)C(=O)OCC(C)(C)C2 (atropisomer, axis not shown; (M)) [Example 79, (1S,2S)-N-[(7S,13S)-23,23-difluoro-(20M)-20-[2-[(1S)-1-methoxyethyl]-5-morpholino-3-pyridyl]-17,17-dimethyl-8,14-dioxo-15-oxa-4-thia-9,21,30,31-tetrazahexacyclo[23.3.1.1^2,5.1^9,13.0^19,27.0^21,26]hentriaconta-1 (28),2,5 (31),19,25 (29),26-hexaen-7-yl]-2-phenyl-cyclopropanecarboxamide] | 57 | 13.2 | 3.2 | 1.4 | 1.6 | 16.2 |
| CO[C@@H](C)c1ncc(N2CCN(C)CC2)cc1-c1c2c3cc(cc4c3n1CCC4)-c1csc(n1)C[C@H](NC(=O)[C@H]1CC[C@H](c3nnnn3C)CC1)C(=O)N1CCC[C@H](N1)C(=O)OCC(C)(C)C2 (atropisomer, axis not shown; (M)) [Example 70, trans-N-[(7S,13S)-(20M)-20-[2-[(1S)-1-methoxyethyl]-5-(4-methylpiperazin-1-yl)-3-pyridyl]-17,17-dimethyl-8,14-dioxo-15-oxa-4-thia-9,21,30,31-tetrazahexacyclo[23.3.1.1^2,5.1^9,13.0^19,27.0^21,26]hentriaconta-1 (29),2,5 (31),19,25,27-hexaen-7-yl]-4-(1-methyltetrazol-5-yl)cyclohexanecarboxamide] | 98.7 | 24.7 | 17.9 | 5.5 | 1.8 | 27.9 |
| CO[C@@H](C)c1ncc(N2CCN(C)CC2)cc1-c1c2c3cc(cc4c3n1CCC4)-c1csc(n1)C[C@H](NC(=O)[C@H]1C[C@@H]1c1ccncc1)C(=O)N1CCC[C@H](N1)C(=O)OCC(C)(C)C2 [Example 57, (1S,2S)-N-[(7S,13S)-(20M)-20-[2-[(1S)-1-methoxyethyl]-5-(4-methylpiperazin-1-yl)-3-pyridyl]-17,17-dimethyl-8,14-dioxo-15-oxa-4-thia-9,21,30,31-tetrazahexacyclo[23.3.1.1^2,5.1^9,13.0^19,27.0^21,26]hentriaconta-1 (28),2,5 (31), 19,25 (29),26-hexaen-7-yl]-2-(4-pyridyl)cyclopropanecarboxamide] | 27.6 | 5.4 | 1.5 | 1.3 | 1.1 | 6.1 |
| CO[C@@H](C)c1ncc(N2CCOCC2)cc1-c1c2c3cc(cc4c3n1CCC4)-c1csc(n1)C[C@H](NC(=O)[C@H]1C[C@@H]1c1ccccc1)C(=O)N1CCC[C@H](N1)C(=O)OCC(C)(C)C2 (atropisomer, axis not shown; (M)) [Example 46, (1S,2S)-N-[(7S,13S)-(20M)-20-[2-[(1S)-1-methoxyethyl]-5-morpholino-3-pyridyl]-17,17-dimethyl-8,14-dioxo-15-oxa-4-thia-9,21,30,31-tetrazahexacyclo[23.3.1.1^2,5.1^9,13.0^19,27.0^21,26]hentriaconta-1 (29),2,5 (31), 19,25,27-hexaen-7-yl]-2-phenyl-cyclopropanecarboxamide] | 32.2 | 8.1 | 2.4 | 1 | 0.9 | 9.1 |
| CO[C@@H](C)c1ncc(N2CCOCC2)cc1-c1c2c3cc(cc4c3n1CC(C)(C)O4)-c1csc(n1)C[C@H](NC(=O)[C@H]1C[C@@H]1C)C(=O)N1CCC[C@H](N1)C(=O)OCC(C)(C)C2 (atropisomer, axis not shown; (M)) [Example 38, (1S,2S)-N-[(7S,13S)-(20M)-20-[2-[(1S)-1-methoxyethyl]-5-morpholino-3-pyridyl]-17,17,23,23-tetramethyl-8,14-dioxo-15,24-dioxa-4-thia-9,21,30,31-tetrazahexacyclo[23.3.1.1^2,5.1^9,13.0^19,27.0^21,26]hentriaconta-1 (28),2,5 (31),19,25 (29),26-hexaen-7-yl]-2-methyl-cyclopropanecarboxamide] | 120 | 89.4 | 18 | 5.5 | 8 | 59.4 |
| CO[C@@H](C)c1ncc(N2CCOCC2)cc1-c1c2c3cc(cc4c3n1CCO4)-c1csc(n1)C[C@H](NC(=O)[C@H]1C[C@@H]1c1ccccc1)C(=O)N1CCC[C@H](N1)C(=O)OCC(C)(C)C2 (atropisomer, axis not shown; (M)) [Example 43, (1S,2S)-N-[(7S,13S)-(20M)-20-[2-[(1S)-1-methoxyethyl]-5-morpholino-3-pyridyl]-17,17-dimethyl-8,14-dioxo-15,24-dioxa-4-thia-9,21,30,31-tetrazahexacyclo[23.3.1.1^2,5.1^9,13.0^19,27.0^21,26]hentriaconta-1 (29),2,5 (31), 19,25,27-hexaen-7-yl]-2-phenyl-cyclopropanecarboxamide] | 11.9 | 3.6 | 0.9 | 0.3 | 0.7 | 3.8 |
| CO[C@@H](C)c1ncc(N2CCN(C)CC2)cc1-c1c2c3cc(cc4c3n1CCC4)-c1csc(n1)C[C@H](NC(=O)[C@H]1C[C@@H]1c1ccccc1F)C(=O)N1CCC[C@H](N1)C(=O)OCC(C)(C)C2 [Example 29, (1S,2S)-2-(2-fluorophenyl)-N-[(7S,13S)-(20M)-20-[2-[(1S)-1-methoxyethyl]-5-(4-methylpiperazin-1-yl)-3-pyridyl]-17,17-dimethyl-8,14-dioxo-15-oxa-4-thia-9,21,30,31-tetrazahexacyclo[23.3.1.1^2,5.1^9,13.0^19,27.0^21,26]hentriaconta-1 (28),2,5 (31),19,25 (29),26-hexaen-7-yl]cyclopropanecarboxamide] | 11.4 | 2.5 | 0.8 | < 0.6 | < 0.6 | 1.6 |
| CO[C@@H](C)c1ncc(N2CCN(C)CC2)cc1-c1c2c3cc(cc4c3n1CCCCC4)-c1csc(n1)C[C@H](NC(=O)[C@H]1[C@H](C)[C@@H]1C)C(=O)N1CCC[C@H](N1)C(=O)OCC(C)(C)C2 [Example 127, (1r,2R,3S)-N-[(7S,13S)-(20M)-20-[2-[(1S)-1-methoxyethyl]-5-(4-methylpiperazin-1-yl)-3-pyridyl]-17,17-dimethyl-8,14-dioxo-15-oxa-4-thia-9,21,32,33-tetrazahexacyclo[25.3.1.1^2,5.1^9,13.0^19,29.0^21,28]tritriaconta-1 (30),2,5 (33),19,27 (31),28-hexaen-7-yl]-2,3-dimethyl-cyclopropanecarboxamide] | 1000 | 1000 | 27 | 30 | 30 | 697 |
